Results published in patent US9186385B2 (priority 2009, dated 2015).

Tests used:
[1] = test system: antibody level of hemolysin; assay: Circulating antibody level test on sheep red blood cells (cyclophosphamide immunodeficient mice); assay type: in vivo; conditions: 0.03 g/kg gastric infusion 7 days; cyclophosphamide-treated mice; OD 540 nm
Method: The anti-inflammatory effects of the extract compositions AB and ABC were determined for a series of treatment groups through the circulating antibody level test on sheep red blood cells.
Mice weighing 20-25 g were used in this study. Each group comprised an equal number of male and female animals. Rearing temperature was 23±2° C. The mice were divided into nine groups with 10 rats each: (1) blank control, (2) model control, (3) AB high dosage (15 g/kg), (4) AB mid dosage (7.5 g/kg), (5) AB low dosage (3.75 g/kg), (6) ABC high dosage (13.0 g/kg), (7) ABC mid dosage (7.66 g/kg), (8) ABC low dosage (3.83 g/kg), and (9) levamisole (0.03 g/kg).
The treatments of placebo and extract compositions were administered to each of the mice by gastric infusion for a period of 7 days. On the 2nd, 4th, and 6th day, each mouse, with the exception of those in the blank control group, was injected intraperitoneally with 50 mg/10 ml/kg of cyclophosphamide. Mice in the blank control group were injected intraperitoneally with saline of the same volume. Three days following administration of the final treatment (on day 7), all mice were each immunized by intraperitoneal injections of 0.2 ml of sheep erythrocyte suspension (5% of sheep erythrocyte in saline). […] The absorbance for each supernatant sample was recorded as an index of serum hemolytic level. […]

[2] = test system: peritoneal macrophage phagocytosis; assay: Peritoneal macrophage phagocytosis in mice (India ink clearance, cyclophosphamide); assay type: in vivo; conditions: 0.03 g/kg gastric infusion 7 days; cyclophosphamide-treated mice
[3] = test system: type 1 FM1 influenza virus; assay: Inhibition of the FM1 influenza virus in mice (lung index); assay type: in vivo, NIH mice
[4] = test system: permeability of the intraperitoneal blood capillary; assay: Anti-inflammatory effect: permeability of the intraperitoneal blood capillary (acetic acid, Evans blue); assay type: in vivo, NIH mice; conditions: 0.15 g/kg intragastric once a day, 3 days; acetic acid i.p.; OD 570 nm
Method: The anti-inflammatory effects of the extract compositions AB and ABC were determined for a series of treatment groups through measurement of the permeability of the intraperitoneal blood capillary.
NIH mice, weighing 20±2 g, were used in this experiment. […] The rearing temperature was 23±2° C. The mice were randomly divided into nine groups with 10 mice in each group: (1) blank control, (2) model control, (3) AB high dosage (15 g/kg), (4) AB mid dosage (7.5 g/kg), (5) AB low dosage (3.75 g/kg), (6) ABC high dosage (13.0 g/kg), (7) ABC mid dosage (7.66 g/kg), (8) ABC low dosage (3.83 g/kg), and (9) sodium salicylate group (0.15 g/kg).
An acetic normal saline solution was prepared by dissolving about a 0.4% of glacial acetic acid in 50 ml of a normal saline solution.
A 2% Evans blue normal saline solution was prepared by dissolving 2 g of Evans blue in 100 ml of normal saline solution. […]
About twenty minutes following the receipt of the saline injections, each mouse was sacrificed by breaking its cervical vertebrae. […] The supernatant was then collected and the absorbance or optical density (OD) of the supernatant was measured at 570 nm using a spectrophotometer. The experimental data was analyzed. Data was assessed using the t-test to determine statistically significant differences between the results of each of the groups. […]

[5] = test system: foot swelling induced by carrageenan; assay: Rat foot swelling induced by carrageenan; assay type: in vivo, Rats; conditions: 0.15 g/kg oral once a day, 4 days
Method: The anti-inflammatory effects of the extract compositions AB and ABC were determined for a series of treatment groups through measurement of the foot swelling of rat paws following the administration of carrageenan.
Rats weighing 200±20 g were used in this experiment. Each test group comprised the same number of male and female animals. Rearing temperature was 23±2° C. The rats were divided into eight groups with 10 rats each: (1) model control, (2) AB high dosage (15 g/kg), (3) AB mid dosage (7.5 g/kg), (4) AB low dosage (3.75 g/kg), (5) ABC high dosage (13.0 g/kg), (6) ABC mid dosage (7.66 g/kg), (7) ABC low dosage (3.83 g/kg), (8) sodium salicylate group (0.15 g/kg), […]. There was no blank control in this experiment as there is no swelling of an animal paws where carrageenan is not administered
The method for conducting this experiment followed the guidelines outlined in the Manual on Studies of New Medicines of TCM by the Drug Administration Ministry of Health P.R.C. The method outlined in the manual details the following steps:
1. Draw a clear transverse line situated on the upper and front angles of the left back paw of each rat with a ballpoint pen;
2. Measure the paw volume of each rat;
3. Subcutaneously inject each rat, except those in the blank control group, with a dose of carrageenan (0.05 ml/paw) into the metatarsus of the hindlimb;
4. Orally administer one of the treatments of the AB extract, ABC extract, or sodium salicylate as per the above-noted dosages once a day for a period of 4 days. Rats in the model control group and blank were injected with saline of the same volume;
5. On the morning of the 4th day, one hour following the last administration of the final treatment, subcutaneously inject carrageenan (0.05 ml/paw) into the metatarsus of hindlimb of each rat;
6. Measure the paw volume at each of 1 hour, 2 hours, 3 hours, and 4 hours following the second carrageenan administration; and
7. Calculate the paw swelling percentage for each rat.
The swelling percentage was calculated by the following formula: Swelling percentage=((swelling volumes of rat paw after inflammation−swelling volumes of rat paw before inflammation)/swelling volumes of rat paw before inflammation)×100%
The experimental data was analyzed using the t-test to determine statistically significant differences between the results of each of the groups. There was no swelling in the paws of rats in the blank control group. The anti-inflammatory effects of the AB and ABC herbal extract compositions and sodium salicylate were considered to be effective when P was less than 0.05.

[6] = […], 0.07 g/kg intragastric once a day, 3 days, day 4

c1ccc([C@H]2CN3CCSC3=N2)cc1 [Levamisole, levamisole]
OD value of hemolysin [1]: 0.75 ± 0.006
Phagocytic coefficient (K) [2]: 0.046 ± 0.007
Phagocytic coefficient index (α) [2]: 6.76 ± 0.43

NC(=O)c1ncn([C@@H]2O[C@H](CO)[C@@H](O)[C@H]2O)n1 [Ribavirin]
Lung Index [3, 6]: 1.19 ± 0.30 g/g
Weight [3, 6]: 14.94 ± 1.64 g
The rate of inhibition of lung index ([3]; mouse, in vivo): 32.38%

O=C([O-])c1ccccc1O.[Na+] [Sodium salicylate, sodium salicylate]
OD value of haemolysin in serum [4]: 0.305 ± 0.060
Paw swelling ([5]; 1 h after carrageenan): 0.490 ± 0.202 mL
Paw swelling ([5]; 2 h after carrageenan): 0.405 ± 0.195 mL
Paw swelling ([5]; 3 h after carrageenan): 0.265 ± 0.153 mL
Paw swelling ([5]; 4 h after carrageenan): 0.170 ± 0.136 mL
